This test has as its system Tobacco plants (Nicotiana tabactum cv. Wisconsin 38). The experiment in a line: Foliar spray of 10015 on P450SU1 transformed tobacco plants (Example 21). In kind it is in vivo, Nicotiana tabacum. As to conditions: individual plants. The text has this:
Tobacco plants (Nicotiana tabactum cv. Wisconsin 38) transformed with plasmids pAGS112, pSU18, pSSU-SU111, pCab-SU121 or pCab-SU131 (singly) and accumulating the P450SU1 protein were identified by Western blot analysis. Seed arising from the self pollination of individual primary transformants designated AGS112, SU18.8, SU18.14, SSU-SU111.5, […], and Cab-SU131.5 gave rise to the plants described in this Example. The progeny of primary AGS112 and Cab-SU121.5 transformants segregated for single copy kanamycin resistance. In contrast, the progeny of the plants transformed with plasmids containing P450SU1 (other than Cab-SU121.5) segregated for multicopy kanamycin resistance. Thus, most plants containing the gene encoding P450SU1 and sprayed with 10015 in this Example likely contained at least one, and in many cases multiple, copies of P450SU1, while very few individuals likely carried no copies of the gene encoding P450SU1.
Seed from transformed and nontransformed tobacco plants was germinated in a commercial potting mix Metro-Mix® 350 for 25 days. Individual plants were then transferred to 4 inch×4 inch pots containing Metro Mix® 350 and were allowed to grow in the greenhouse for an additional 22 days at which time most plants contained 4-5 fully expanded leaves. A developmentally uniform population of plants was selected from among these transplants and the individual plants were then sprayed with a carrier solution of AGWT (90.2% Acetone: 4.8% Glycerol: 4.8% Water: 0.24% Tween 20 by volume) containing sulfonylurea compound 10015 at concentrations of 1,4, or 16 grams/hectare (g/ha). The sprayed plants were returned to the greenhouse and rated for injury 22 days later.

Each structure is given as a SMILES string. Values joined by “and” are separate entries in the source; they are usually repeats but may differ in a detail not shown here. Equal values may be shown once.

`COc1cc(OC)nc(NC(=O)NS(=O)(=O)c2cccc3c2S(=O)(=O)N(C(C)C)C3)n1` [compound 10015]: the “% Damage” value is 0% and 10% (1 g/ha, AGS 112, 22 days); 90% and 95% (1 g/ha, Cab-SU111.8, 22 days); 85% and 95% and 20% (1 g/ha, Cab-SU121.5, 22 days); 50% and 95% and 90% (1 g/ha, Cab-SU131.5, 22 days); 95% (1 g/ha, SSU-SU111.5, 22 days); 40% (1 g/ha, SU18.14, 22 days). In addition, the “% Damage” value was 10% (1 g/ha, SU18.8, 22 days); 0% and 10% (1 g/ha, W38, 22 days after spraying); 0% and 40% (4 g/ha, AGS 112, 22 days); 0% and 99% (4 g/ha, Cab-SU111.8, 22 days); 90% and 100% and 95% (4 g/ha, Cab-SU121.5, 22 days); 40% and 100% (4 g/ha, Cab-SU131.5, 22 days). Further, the “% Damage” value is 100% (4 g/ha, SSU-SU111.5, 22 days); 70% (4 g/ha, SU18.14, 22 days); 60% (4 g/ha, SU18.8, 22 days); 0% and 10% and 20% and 30% (4 g/ha, W38, 22 days).
